Measured values from the supplement of paper PMC10307832.

What was measured:
Experiment in all cases: relative viability (nuclei count vs DMSO), 5 days (fraction); higher = more cells survive
Gemcitabine + Alpelisib = compound: Nc1ccn([C@@H]2O[C@H](CO)[C@@H](O)C2(F)F)c(=O)n1 [Gemcitabine] + Cc1nc(NC(=O)N2CCC[C@H]2C(N)=O)sc1-c1ccnc(C(C)(C)C(F)(F)F)c1 [Alpelisib] (partner 2 µM)
Procedure, shortened: (§1)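 Relative viability equals treated-well nuclei counts divided by vehicle-well nuclei counts. Counts came from 4× images of lung cancer cell lines grown in 1536-well plates for 5 days after pin-tool dosing on the day after seeding. Dosing used one drug alone or a fixed anchor-drug dose plus five library-drug doses (not always all listed) in √10 steps, and values are medians of duplicate plates.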

Gemcitabine + Tozasertib = compound: Nc1ccn([C@@H]2O[C@H](CO)[C@@H](O)C2(F)F)c(=O)n1 [Gemcitabine] + Cc1cc(Nc2cc(N3CCN(C)CC3)nc(Sc3ccc(NC(=O)C4CC4)cc3)n2)n[nH]1 [Tozasertib] (partner 0.1 µM)
Procedure, shortened: as §1

Gemcitabine + Luminespib = compound: Nc1ccn([C@@H]2O[C@H](CO)[C@@H](O)C2(F)F)c(=O)n1 [Gemcitabine] + CCNC(=O)c1noc(-c2cc(C(C)C)c(O)cc2O)c1-c1ccc(CN2CCOCC2)cc1 [Luminespib] (partner 0.01 µM)
Procedure, shortened: as §1

Gemcitabine + Dasatinib = compound: Nc1ccn([C@@H]2O[C@H](CO)[C@@H](O)C2(F)F)c(=O)n1 [Gemcitabine] + Cc1nc(Nc2ncc(C(=O)Nc3c(C)cccc3Cl)s2)cc(N2CCN(CCO)CC2)n1 [Dasatinib] (partner 0.075 µM)
Procedure, shortened: as §1

Row | Cell Line | relative viability (Gemcitabine + Alpelisib; first compound 0.001 µM) | relative viability (Gemcitabine + Alpelisib; first compound 0.003162 µM) | relative viability (Gemcitabine + Alpelisib; first compound 0.01 µM) | relative viability (Gemcitabine + Alpelisib; first compound 0.03162 µM) | relative viability (Gemcitabine + Alpelisib; first compound 0.1 µM) | relative viability (Gemcitabine + Tozasertib; first compound 0.001 µM) | relative viability (Gemcitabine + Tozasertib; first compound 0.003162 µM) | relative viability (Gemcitabine + Tozasertib; first compound 0.01 µM) | relative viability (Gemcitabine + Tozasertib; first compound 0.03162 µM) | relative viability (Gemcitabine + Tozasertib; first compound 0.1 µM) | relative viability (Gemcitabine + Luminespib; first compound 0.001 µM) | relative viability (Gemcitabine + Luminespib; first compound 0.003162 µM) | relative viability (Gemcitabine + Luminespib; first compound 0.01 µM) | relative viability (Gemcitabine + Luminespib; first compound 0.03162 µM) | relative viability (Gemcitabine + Luminespib; first compound 0.1 µM) | relative viability (Gemcitabine + Dasatinib; first compound 0.001 µM) | relative viability (Gemcitabine + Dasatinib; first compound 0.003162 µM) | relative viability (Gemcitabine + Dasatinib; first compound 0.01 µM) | relative viability (Gemcitabine + Dasatinib; first compound 0.03162 µM) | relative viability (Gemcitabine + Dasatinib; first compound 0.1 µM)
1 | NCI-H2126 | 0.749 | 0.705 | 0.728 | 0.504 | 0.255 | 0.866 | 0.802 | 0.756 | 0.471 | 0.245 | 0.975 | 0.828 | 0.773 | 0.414 | 0.257 | 0.647 | 0.6 | 0.548 | 0.389 | 0.19
2 | NCI-H2170 | 0.85 | 0.767 | 0.412 | 0.181 | 0.169 | 0.824 | 0.735 | 0.469 | 0.154 | 0.134 | 0.564 | 0.633 | 0.575 | 0.169 | 0.151 | 0.609 | 0.673 | 0.415 | 0.114 | 0.104
3 | NCI-H2228 | 0.74 | 0.534 | 0.144 | 0.123 | 0.134 | 0.278 | 0.209 | 0.154 | 0.108 | 0.115 | 0.131 | 0.0993 | 0.14 | 0.149 | 0.124 | 0.529 | 0.3 | 0.118 | 0.111 | 0.087
4 | NCI-H2347 | 1.05 | 0.815 | 0.752 | 0.574 | 0.324 | 0.563 | 0.547 | 0.484 | 0.29 | 0.259 | 0.412 | 0.513 | 0.302 | 0.448 | 0.282 | 0.291 | 0.304 | 0.257 | 0.22 | 0.195
5 | NCI-H2405 | 0.753 | 0.588 | 0.287 | 0.196 | 0.179 | 0.812 | 0.709 | 0.495 | 0.221 | 0.216 | 0.73 | 0.746 | 0.587 | 0.207 | 0.216 | 0.2 | 0.196 | 0.199 | 0.151 | 0.159
6 | NCI-H3122 | 0.824 | 0.774 | 0.627 | 0.234 | 0.165 | 0.428 | 0.365 | 0.222 | 0.106 | 0.0862 | 0.1 | 0.0845 | 0.0643 | 0.0629 | 0.0705 | 0.852 | 0.89 | 0.588 | 0.0797 | 0.0782
7 | PC-3 [JPC-3] | 1.13 | 0.736 | 0.649 | 0.264 | 0.248 | 0.902 | 0.796 | 0.666 | 0.264 | 0.237 | 0.79 | 0.685 | 0.415 | 0.349 | 0.314 | 1.01 | 0.925 | 0.635 | 0.252 | 0.207
8 | PC-14 | 1.02 | 0.688 | 0.468 | 0.0826 | 0.0459 | 0.579 | 0.275 | 0.078 | 0.0297 | 0.0356 | 0.155 | 0.135 | 0.132 | 0.08 | 0.109 | 0.262 | 0.12 | 0.0174 | 0.0131 | 0.016
9 | RERF-LC-KJ | 0.853 | 0.849 | 0.856 | 0.496 | 0.228 | 0.596 | 0.543 | 0.578 | 0.323 | 0.229 | 1.17 | 1.45 | 1.13 | 0.458 | 0.319 | 0.837 | 0.879 | 0.768 | 0.291 | 0.19
10 | SK-LU-1 | 0.745 | 0.337 | 0.246 | 0.224 | 0.192 | 0.303 | 0.207 | 0.131 | 0.145 | 0.14 | 0.175 | 0.197 | 0.188 | 0.18 | 0.169 | 0.165 | 0.123 | 0.106 | 0.112 | 0.131
11 | SK-MES-1 | 0.658 | 0.454 | 0.21 | 0.189 | 0.183 | 0.691 | 0.305 | 0.197 | 0.147 | 0.126 | 0.748 | 0.328 | 0.166 | 0.239 | 0.153 | 0.297 | 0.171 | 0.116 | 0.119 | 0.114
12 | SW 1573 | 0.749 | 0.592 | 0.295 | 0.0967 | 0.0846 | 0.189 | 0.165 | 0.0964 | 0.0589 | 0.0466 | 0.192 | 0.166 | 0.0849 | 0.154 | 0.112 | 0.481 | 0.258 | 0.0669 | 0.0389 | 0.0494
13 | UMC-11 | 1.15 | 0.931 | 0.885 | 0.792 | 0.239 | 0.197 | 0.162 | 0.221 | 0.211 | 0.215 | 1.18 | 1.15 | 0.834 | 0.829 | 0.47 | 0.464 | 0.516 | 0.415 | 0.368 | 0.223
